Laboratory results published in patent publication US20220313774A1, “INTRANASAL ADMINISTRATION OF MEROTOCIN FOR IMPROVING LACTATION” (FERRING B.V., priority 2019, published 2022).
Read-outs that look alike come from different tables or passages of the source. *1 amine or outer side, *2 acyl side, *3 side chain or, on linkers, in order; H or OH if unused. Where a SMILES comes first, the peptide text is derived from it. Bridges are numbered along the chain shown (N, C = ends). [ ]: non-standard residue; d: D form. N(4-F-Bzl)Gly = O=C(O)CNCc1ccc(F)cc1; X1 = O=C(CCC[*:2])[*:1]

Assays:
healthy women [1] = system: healthy women;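 on Any AE: number of AEs, E: adverse events in healthy women given intranasal doses every 3 h over 45 h (16 doses per panel), each panel with 6 active and 2 placebo subjects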;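 on Any AE: subjects with AE, n (%): adverse events in healthy women given intranasal doses every 3 h over 45 h (16 doses per panel), each panel with 6 active and 2 placebo subjects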;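 on Breast tenderness: number of AEs, E: adverse events in healthy women given intranasal doses every 3 h over 45 h (16 doses per panel), each panel with 6 active and 2 placebo subjects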;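 on Breast tenderness: subjects with AE, n (%): adverse events in healthy women given intranasal doses every 3 h over 45 h (16 doses per panel), each panel with 6 active and 2 placebo subjects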
Procedure: Part 2. Ascending multiple i.n. doses. There were 3 dose panels with 8 healthy women in each dose panel (6 active, 2 placebo). The dosing schedule was every 3 hours for 45 hours, i.e. 16 doses in all. The doses investigated were 50 μg, 200 μg, and 400 μg.
Three dose levels were investigated: the first dose was 50 μg, the second dose was 200 μg (intermediate between the first dose and the maximal tolerated dose in Part 1), and the highest dose was 400 μg (the maximal dose in Part 1).

healthy women [2] = conditions: in vivo
clinical = conditions: female, human, in vivo
Procedure: (§1) The first clinical trial in human, Trial 000015, was a double-blind, placebo-controlled, single dose, within dose panel randomised, sequential dose escalating study. The trial was divided into three parts:
(§2) Part 1. Ascending single i.n. doses. There were 7 dose panels with 8 healthy women in each dose panel (6 active, 2 placebo). The doses investigated were 5 μg, 15 μg, 50 μg, 100 μg, 200 μg, 300 μg, and 400 μg.
(§3) Seven dose levels were investigated: 5, 15, 50, 100, 200, 300, and 400 μg. Each of the doses were administered as a nasal spray based on one or multiple puffs per nostril.
(§4) FE 202767 was provided as an isotonic citrate/phosphate buffered solution of pH 5.5 in water in vials containing an extractable volume of 0.9 mL (Table 2). The concentration of FE 202767 was 0.7 mg/mL, to be used appropriately diluted with buffer or, for Part 3, NaCl for injection. The buffer used for FE 202767 was used as placebo in this study.

[3] = Trial 000015 Part 1: pharmacokinetics after single intranasal administration
Procedure: as §1, §2, §3, §4

[4] = Trial 000015 Part 3: pharmacokinetics, single intranasal and single intravenous cross-over; conditions: female, human, plasma; for Tmax: tmax Mean (SD); for bioavailability: 400 μg i.n. vs 20 μg i.v.
Procedure: Open-label cross-over single i.n. and single i.v. dose in 6 healthy women. The doses investigated were 20 μg as an i.v. infusion over 25 minutes, and 400 μg as a single i.n. dose.
The intranasal dose was 400 μg (4×140 μl, the same as the highest dose in Part 1), the i.v. dose was 20 μg infused in 2 mL over 25 minutes.
The intravenous dose and infusion rate were determined from the intranasal pharmacokinetic data in Part 1.

[5] = multiple doses 50 μg i.n., N = 6
[6] = multiple doses 200 μg i.n., N = 6
[7] = multiple doses 400 μg i.n., N = 6

With `CC[C@H](C)[C@@H]1NC(=O)[C@H](Cc2ccc(O)cc2)NC(=O)CCCSC[C@@H](C(=O)N(CC(=O)N[C@@H](CC(C)C)C(=O)NCC(N)=O)Cc2ccc(F)cc2)NC(=O)[C@H](CC(N)=O)NC(=O)[C@H](CCC(N)=O)NC1=O` [merotocin, Glycinamide, N-(4-mercapto-1-oxobutyl)-L-tyrosyl-L-isoleucyl-Lglutaminyl-L-asparaginyl-L-cysteinyl-N-[(4-fluorophenyl)methyl]glycyl-L-leucyl-, cyclic (1→5)-thioether] (YIQNC[N(4-F-Bzl)Gly]LG-NH2; linker N-5 via X1) as the molecule, how does the “Any AE: number of AEs, E” value (healthy women [1]; [5]) read?
Its value is 3.

What about the “Any AE: subjects with AE, n (%)” value (healthy women [1]; [5]) of the same molecule?
Its value is 3 (50%).

What about the “Breast tenderness: number of AEs, E” value (healthy women [1]; [5]) of the same molecule?
The value was 1.

What about the “Breast tenderness: subjects with AE, n (%)” value (healthy women [1]; [5]) of the same molecule?
Its value is 1 (17%).

And the “Headache: number of AEs, E” value (healthy women [1]; [5])?
Its value is 2.

What about the “Headache: subjects with AE, n (%)” value (healthy women [1]; [5]) of the same molecule?
Its value is 2 (33%).

What about the “Any AE: number of AEs, E” value (healthy women [1]; [6]) of the same molecule?
Its value is 5.

And the “Any AE: subjects with AE, n (%)” value (healthy women [1]; [6])?
Its value is 4 (67%).

What about the “Dry mouth: number of AEs, E” value (healthy women [1]; [6]) of the same molecule?
Its value is 3.

What about the “Dry mouth: subjects with AE, n (%)” value (healthy women [1]; [6]) of the same molecule?
Its value is 3 (50%).

And the “Flushing: number of AEs, E” value (healthy women [1]; [6])?
Its value is 1.

And the “Flushing: subjects with AE, n (%)” value (healthy women [1]; [6])?
The value was 1 (17%).

And the “Headache: number of AEs, E” value (healthy women [1]; [6])?
The value was 1.

What about the “Headache: subjects with AE, n (%)” value (healthy women [1]; [6]) of the same molecule?
The value was 1 (17%).

And the “Any AE: number of AEs, E” value (healthy women [1]; [7])?
The value was 6.

And the “Any AE: subjects with AE, n (%)” value (healthy women [1]; [7])?
Its value is 3 (50%).

And the “Dry mouth: number of AEs, E” value (healthy women [1]; [7])?
Its value is 2.

And the “Dry mouth: subjects with AE, n (%)” value (healthy women [1]; [7])?
Its value is 2 (33%).

What about the “Flushing: number of AEs, E” value (healthy women [1]; [7]) of the same molecule?
The value was 1.

And the “Flushing: subjects with AE, n (%)” value (healthy women [1]; [7])?
Its value is 1 (17%).

What about the “Headache: number of AEs, E” value (healthy women [1]; [7]) of the same molecule?
The value was 2.

What about the “Headache: subjects with AE, n (%)” value (healthy women [1]; [7]) of the same molecule?
Its value is 1 (17%).

What about the “Nausea: number of AEs, E” value (healthy women [1]; [7]) of the same molecule?
The value was 1.

What about the “Nausea: subjects with AE, n (%)” value (healthy women [1]; [7]) of the same molecule?
Its value is 1 (17%).

What about the “number of TEAEs reported” value (healthy women [1]; multiple doses, 24 subjects) of the same molecule?
Its value is 14.

And the degradation by chymotrypsin (chymotrypsin)?
The degradation by chymotrypsin was “degradable by chymotrypsin”.

What about the “ECG and safety laboratory parameters” value (healthy women [2]) of the same molecule?
The value was “not affected to any measurable extent”.

What about the blood pressure shifts (healthy women [2]) of the same molecule?
The blood pressure shifts was “Only occasional events of blood pressure shifts”.

What about the pulse rate (healthy women [2]) of the same molecule?
The pulse rate was “appeared to increase the pulse rate”.

What about the urinary retention (healthy women [2]) of the same molecule?
Its urinary retention is “no signs of urinary retention”.

What about the half-life (clinical; inhaled or intranasal, 200 ug, t1/2 Median) of the same molecule?
Its half-life is 23.4 min.

And the half-life (clinical; inhaled or intranasal, 400 ug, t1/2 Harmonic mean)?
Its half-life is 33.6 min.

And the half-life (clinical; inhaled or intranasal, 400 ug, t1/2 Median)?
The half-life was 33 min.

And the half-life (clinical; t1/2)?
Its half-life is 25 to 35 min.

What about the Cmax ([3]; female, human, plasma, inhaled or intranasal, 100 ug, Cmax Geom. mean (% CV), single i.n. dose 100 μg, N = 6) of the same molecule?
Its Cmax is 0.0379 ng/mL.

And the Cmax ([3]; female, human, plasma, inhaled or intranasal, 100 ug, Cmax Median, single i.n. dose 100 μg, N = 6)?
Its Cmax is 0.0322 ng/mL.

What about the AUC(0-t) ([3]; female, human, plasma, inhaled or intranasal, 200 ug, AUCt Geom. mean (% CV), single i.n. dose 200 μg, N = 6) of the same molecule?
The AUC(0-t) was 0.0357 ng·h/mL.

And the AUC(0-t) ([3]; female, human, plasma, inhaled or intranasal, 200 ug, AUCt Median, single i.n. dose 200 μg, N = 6)?
Its AUC(0-t) is 0.0525 ng·h/mL.

What about the Cmax ([3]; female, human, plasma, inhaled or intranasal, 200 ug, Cmax Geom. mean (% CV), single i.n. dose 200 μg, N = 6) of the same molecule?
The Cmax was 0.0841 ng/mL.

And the Cmax ([3]; female, human, plasma, inhaled or intranasal, 200 ug, Cmax Median, single i.n. dose 200 μg, N = 6)?
The Cmax was 0.0999 ng/mL.

What about the AUC(0-t) ([3]; female, human, plasma, inhaled or intranasal, 300 ug, AUCt Geom. mean (% CV), single i.n. dose 300 μg, N = 6) of the same molecule?
Its AUC(0-t) is 0.0778 ng·h/mL.

What about the AUC(0-t) ([3]; female, human, plasma, inhaled or intranasal, 300 ug, AUCt Median, single i.n. dose 300 μg, N = 6) of the same molecule?
The AUC(0-t) was 0.0943 ng·h/mL.

What about the Cmax ([3]; female, human, plasma, inhaled or intranasal, 300 ug, Cmax Geom. mean (% CV), single i.n. dose 300 μg, N = 6) of the same molecule?
Its Cmax is 0.143 ng/mL.

What about the Cmax ([3]; female, human, plasma, inhaled or intranasal, 300 ug, Cmax Median, single i.n. dose 300 μg, N = 6) of the same molecule?
The Cmax was 0.148 ng/mL.

What about the Tmax ([3]; female, human, plasma, inhaled or intranasal, 300 ug, tmax Mean (SD), single i.n. dose 300 μg, N = 6) of the same molecule?
The Tmax was 12 min.

What about the AUC(0-t) ([3]; female, human, plasma, inhaled or intranasal, 400 ug, AUCt Geom. mean (% CV), single i.n. dose 400 μg, N = 6) of the same molecule?
Its AUC(0-t) is 0.0886 ng·h/mL.

And the AUC(0-t) ([3]; female, human, plasma, inhaled or intranasal, 400 ug, AUCt Median, single i.n. dose 400 μg, N = 6)?
Its AUC(0-t) is 0.119 ng·h/mL.

What about the Cmax ([3]; female, human, plasma, inhaled or intranasal, 400 ug, Cmax Median, single i.n. dose 400 μg, N = 6) of the same molecule?
The Cmax was 0.199 ng/mL.

What about the Tmax ([3]; female, human, plasma, inhaled or intranasal, 400 ug, tmax Mean (SD), single i.n. dose 400 μg, N = 6) of the same molecule?
The Tmax was 13.2 min.

What about the Tmax ([3]; female, human, plasma, other: intranasal, tmax, all i.n. dose levels, single or multiple administration) of the same molecule?
Its Tmax is 12 to 15 min.

And the Tmax ([3]; female, human, plasma, other: intranasal, tmax, single i.n. dose, all dose groups)?
The Tmax was 12 to 15 min.

What about the half-life ([3]; female, human, plasma, other: intranasal, t½, after i.n. administration, Trial 000015 key results) of the same molecule?
Its half-life is ~30 min.

And the “increase of exposure (AUC and Cmax) with dose” value ([3]; single i.n. doses)?
The value was “close to dose proportional manner”.

What about the AUC(0-t) ([4]; inhaled or intranasal, 400 ug, AUCt Geom. mean (% CV), cross-over, 400 μg i.n. single dose, N = 6) of the same molecule?
Its AUC(0-t) is 0.083 ng·h/mL.

And the AUC(0-t) ([4]; inhaled or intranasal, 400 ug, AUCt Median, cross-over, 400 μg i.n. single dose, N = 6)?
Its AUC(0-t) is 0.0728 ng·h/mL.

And the half-life ([4]; inhaled or intranasal, 400 ug, t1/2 Median, cross-over, 400 μg i.n. single dose, N = 6)?
Its half-life is 36.6 min.

And the Tmax ([4]; inhaled or intranasal, 400 ug, cross-over, 400 μg i.n. single dose, N = 6)?
Its Tmax is 6.6 min.

What about the AUC(0-t) ([4]; iv, 20 ug, AUCt Geom. mean (% CV), cross-over, 20 μg i.v. infusion over 25 minutes, N = 6) of the same molecule?
Its AUC(0-t) is 0.146 ng·h/mL.

What about the clearance ([4]; iv, 20 ug, CL Median, 20 μg i.v. infusion over 25 minutes, N = 6) of the same molecule?
Its clearance is 2130 mL/min.

And the Cmax ([4]; iv, 20 μg, Cmax Geom. mean (% CV), cross-over, 20 μg i.v. infusion over 25 minutes, N = 6)?
Its Cmax is 0.463 ng/mL.

And the Cmax ([4]; iv, 20 ug, Cmax Median, cross-over, 20 μg i.v. infusion over 25 minutes, N = 6)?
Its Cmax is 0.463 ng/mL.

What about the Vd ([4]; iv, 20 ug, Vz Mean (SD), 20 μg i.v. infusion over 25 minutes, N = 6) of the same molecule?
Its Vd is 37.5 L.

What about the Vd ([4]; iv, 20 ug, Vz Median, 20 μg i.v. infusion over 25 minutes, N = 6) of the same molecule?
The Vd was 31.2 L.

And the Cmax ([4]; iv, 20 μg, mean Cmax, single i.v. infusion of 20 μg over 25 minutes)?
The Cmax was 0.463 ng/mL.

And the half-life ([4]; iv, 20 ug, t1/2 Harmonic mean, cross-over, 20 μg i.v. infusion over 25 minutes, N = 6)?
The half-life was 10.2 min.

What about the half-life ([4]; iv, 20 ug, t1/2 Median, cross-over, 20 μg i.v. infusion over 25 minutes, N = 6) of the same molecule?
The half-life was 10.8 min.

What about the Tmax ([4]; iv, 20 ug, cross-over, 20 μg i.v. infusion over 25 minutes, N = 6) of the same molecule?
The Tmax was 21.6 min.

What about the Cmax ([4]; other: intranasal, 400 ug, Cmax Geom. mean (% CV), cross-over, 400 μg i.n. single dose, N = 6) of the same molecule?
Its Cmax is 0.151 ng/mL.

And the Cmax ([4]; other: intranasal, 400 ug, Cmax Median, cross-over, 400 μg i.n. single dose, N = 6)?
The Cmax was 0.156 ng/mL.

What about the bioavailability ([4]; other: intranasal, 400 μg, F Median, N = 6) of the same molecule?
The bioavailability was 3.4%.

And the bioavailability ([4]; other: intranasal, 400 μg, bioavailability (range))?
The bioavailability was 2.2 to 6.2%.

What about the Cmax ([4]; other: intranasal, 400 μg, mean Cmax, single dose i.n. administration, highest dose group) of the same molecule?
The Cmax was 0.151 ng/mL.
